The values below come from article PMC4068829 (Journal of medicinal chemistry, 2013).

In data set [1] the target is T1, MATE1 (Homo sapiens, UniProt Q96FL8).
T1 sequence (Q96FL8 1-570): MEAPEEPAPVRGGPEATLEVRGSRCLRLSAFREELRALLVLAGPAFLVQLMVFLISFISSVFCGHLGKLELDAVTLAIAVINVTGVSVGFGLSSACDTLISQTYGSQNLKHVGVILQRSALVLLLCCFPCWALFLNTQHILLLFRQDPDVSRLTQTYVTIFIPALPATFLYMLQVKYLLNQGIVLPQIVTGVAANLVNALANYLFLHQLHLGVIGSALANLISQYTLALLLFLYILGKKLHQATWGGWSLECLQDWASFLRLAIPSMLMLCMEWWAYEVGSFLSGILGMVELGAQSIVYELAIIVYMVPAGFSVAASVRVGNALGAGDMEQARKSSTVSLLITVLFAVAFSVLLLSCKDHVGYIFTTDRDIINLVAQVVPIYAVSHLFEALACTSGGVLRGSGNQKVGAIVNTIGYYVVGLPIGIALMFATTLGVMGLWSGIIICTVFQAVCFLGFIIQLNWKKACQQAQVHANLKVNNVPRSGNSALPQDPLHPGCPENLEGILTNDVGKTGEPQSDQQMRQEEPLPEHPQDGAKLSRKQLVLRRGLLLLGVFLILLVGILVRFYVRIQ
Briefly: in vitro. The following applies: HEK cells stably overexpressing MATE1, pH 7.4.

The target of a further data set is human MATE2-K (Homo sapiens, UniProt Q86VL8). Format: cell-based. The following applies: for did not inhibit MATE2-K up to: highest concentration without inhibition, data not shown.
Data set [2] has as its target T1, MATE1. Briefly: High throughput screen.
Data set [3] concerns the target T1, MATE1. The format is cell-based.
For data set [4] the following is noted: cited from earlier work.
Data set [5] deals with T1, MATE1. The experiment in a line: 14C-metformin uptake in HEK293 cells stably expressing MATE1.
In data set [6] the target is T1, MATE1.
The next data set concerns the target T2, human OCT2 (Homo sapiens, UniProt O15244).
T2 sequence (O15244 1-555): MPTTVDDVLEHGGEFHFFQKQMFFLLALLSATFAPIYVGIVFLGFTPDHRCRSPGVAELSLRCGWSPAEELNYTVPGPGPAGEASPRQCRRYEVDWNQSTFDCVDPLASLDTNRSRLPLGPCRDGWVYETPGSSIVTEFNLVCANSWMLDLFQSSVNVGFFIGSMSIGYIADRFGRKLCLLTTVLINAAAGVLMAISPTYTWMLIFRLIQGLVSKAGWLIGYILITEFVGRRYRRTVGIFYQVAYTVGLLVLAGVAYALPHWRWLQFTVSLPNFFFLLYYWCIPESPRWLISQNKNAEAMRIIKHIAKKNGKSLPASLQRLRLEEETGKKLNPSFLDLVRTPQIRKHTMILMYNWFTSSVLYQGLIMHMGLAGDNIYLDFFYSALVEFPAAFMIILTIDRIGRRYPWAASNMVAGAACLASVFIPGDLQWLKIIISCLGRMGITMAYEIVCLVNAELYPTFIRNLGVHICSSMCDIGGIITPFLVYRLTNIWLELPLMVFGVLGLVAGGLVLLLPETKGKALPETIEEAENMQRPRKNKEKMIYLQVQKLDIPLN
Format: cell-based.

For data set [7] the following is noted: ref 53 (Micromedex); cited from earlier work.
The mark [8] stands for this setting: clinical plasma concentration, ref 54-58 (a-e).

Read-outs that look alike come from different tables or passages of the source.

One may read the Km as the concentration of substrate that gives half-maximal velocity. As usually defined, the Cmax is the maximum level reached in the sampled fluid or tissue. A word on the inhibition: it is the drop in the measured response relative to a control, in per cent. Lower therefore signals a response near the control.

human MATE2-K, sequence (Q86VL8 1-566 isoform Q86VL8-3): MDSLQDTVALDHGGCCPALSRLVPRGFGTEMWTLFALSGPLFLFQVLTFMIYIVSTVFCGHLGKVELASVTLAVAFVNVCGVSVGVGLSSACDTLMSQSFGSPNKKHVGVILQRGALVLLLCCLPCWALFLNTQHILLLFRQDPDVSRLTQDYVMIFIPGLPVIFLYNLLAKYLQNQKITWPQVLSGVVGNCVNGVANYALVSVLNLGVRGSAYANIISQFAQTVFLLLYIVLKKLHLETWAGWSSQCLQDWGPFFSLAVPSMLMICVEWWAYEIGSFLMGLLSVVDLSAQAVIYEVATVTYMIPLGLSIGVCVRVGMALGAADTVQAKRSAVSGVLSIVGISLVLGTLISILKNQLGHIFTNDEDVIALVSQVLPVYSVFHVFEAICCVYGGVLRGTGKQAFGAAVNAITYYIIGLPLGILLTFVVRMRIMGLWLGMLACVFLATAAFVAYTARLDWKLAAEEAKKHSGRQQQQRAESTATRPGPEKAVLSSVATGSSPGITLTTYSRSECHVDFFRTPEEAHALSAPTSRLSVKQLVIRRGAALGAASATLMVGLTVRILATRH

On to `CN(C)c1ccc(/C=C/c2cc[n+](C)cc2)cc1` [ASP^+, 4-(4-(Dimethylamino)styryl)-N-methylpyridinium iodide], for which, on MATE1 [1], the Km at […] stood at 34 µM.

As for `COc1ccccc1OCCNCC(O)COc1cccc2[nH]c3ccccc3c12` (stereo not drawn) [Carvedilol], the “did not inhibit MATE2-K up to” value on human MATE2-K is more than 500 µM.

The molecule `[H]/N=C(\N/C(=N/[H])NCCCCCCNC(=N)NC(=N)Nc1ccc(Cl)cc1)Nc1ccc(Cl)cc1` [Chlorhexidine] came in with an IC50 on MATE1 [2] of 3.1 µM.

For `CN1C[C@H](C(=O)N[C@]2(C)O[C@@]3(O)[C@@H]4CCCN4C(=O)[C@H](Cc4ccccc4)N3C2=O)C[C@@H]2c3cccc4[nH]cc(c34)C[C@H]21` [Dihydroergotamine], the IC50 at MATE1 [2] turned out to be 8 µM.

The molecule `NC1=NCC2c3ccccc3Cc3ccccc3N12` (stereo not drawn) [Epinastine] came in with an IC50 against MATE1 [2] of 0.6 µM.

On to `C#C[C@]1(O)CC[C@H]2[C@@H]3CCc4cc(O)ccc4[C@H]3CC[C@@]21C` [Ethinyl estradiol], for which the IC50 against MATE1 [2] was 13.5 µM.

For `NC(N)=Nc1nc(CSCCC(N)=NS(N)(=O)=O)cs1` [Famotidine], the “Cmax,unbound/ IC50 of MATE1, ASP^+” value at MATE1 [3] (ratio, IC50 with ASP+ in HEK293-MATE1, clinical relevance threshold ≥ 0.1) was found to be 0.51. Further, in [4] (in vivo), the Cmax is 460 nM. Besides, the results for the IC50 against MATE1 [5] and against MATE1 [6] were 0.09 µM and 0.16 µM, respectively. Also, on MATE1 [5] (ratio, IC50 with 14C-metformin in HEK293-MATE1, threshold ≥ 0.1), the “Cmax,unbound/ IC50 of MATE1, Metformin” value came out at 4.34. For the same molecule, the “Cmax,unbound/ IC50 of MATE1, Metformin Polarized Cells” value at MATE1 [6] (ratio, IC50 with 14C-metformin in polarized MDCK-hMATE1, threshold ≥ 0.1) is listed as 2.44.

With `CCOC(=O)c1ccc(OC(=O)CCCCCNC(=N)N)cc1` [Gabaxate], the IC50 at MATE1 [2] (read-out: prIC50, predicted IC50 estimated from screening inhibition at 20 μM) was 0.8 µM.

`CN1C2CCCC1CC(NC(=O)c1nn(C)c3ccccc13)C2` (stereo not drawn) [Granisetron]: the IC50 against MATE1 [2] is 9.9 µM.

Regarding `CC(C)(C)NC(=O)[C@@H]1CN(Cc2cccnc2)CCN1C[C@@H](O)C[C@@H](Cc1ccccc1)C(=O)N[C@H]1c2ccccc2C[C@H]1O` [Indinavir], the Cmax in [4] (setting [8]) is 9800 nM.

In the case of `CCc1c2c(nc3ccc(OC(=O)N4CCC(N5CCCCC5)CC4)cc13)-c1cc3c(c(=O)n1C2)COC(=O)[C@]3(O)CC` [Irinotecan], in data set [4] (in vivo), the Cmax is 4600 nM.

Regarding `CO[C@@H]1[C@@H](O[C@@H]2O[C@H](C)[C@@H](O[C@H]3C[C@@](C)(O)[C@@H](OC(=O)CC(C)C)[C@H](C)O3)[C@H](N(C)C)[C@H]2O)[C@@H](CC=O)C[C@@H](C)[C@@H](O)/C=C/C=C/C[C@@H](C)OC(=O)C[C@H]1O` [Leucomycin], the IC50 against MATE1 [3] was 11.1 µM; against human MATE2-K, 125 µM; against human OCT2 it was 182 µM; against MATE1 [2] it was 16 µM. The molecule also showed an inhibition at 20 µM on MATE1 [2] (human, HEK cells stably overexpressing MATE1, pH 7.4, probe ASP+ (5 µM)) of 56 ± 1%.

For `O=C1c2c(O)ccc(O)c2C(=O)c2c(NCCNCCO)ccc(NCCNCCO)c21` [Mitoxantrone], in data set [4] (in vivo), the Cmax is 630 nM.

Take `COc1ccc2c(c1OC)C(=O)O[C@@H]2[C@H]1c2c(cc3c(c2OC)OCO3)CCN1C` [Noscapine]: on human MATE2-K, the “did not inhibit MATE2-K up to” value is more than 500 µM.

For `Cc1nccn1CC1CCc2c(c3ccccc3n2C)C1=O` (stereo not drawn) [Ondansetron], in data set [4] (setting [8]), the Cmax is 440 nM. In addition, the “Protein Binding [% bound]” value in [7] was 73 % bound.

In the case of `COc1ccnc(C[S+]([O-])c2nc3ccc(OC(F)F)cc3[nH]2)c1OC` (stereo not drawn) [Pantoprazole], the “Protein Binding [% bound]” value in [7] is recorded as 98 % bound.

As to `N=C(N)c1ccc(OCCCCCOc2ccc(C(=N)N)cc2)cc1` [Pentamidine], in data set [4] (in vivo), the Cmax is 730 nM.

`CC[C@@]1(O)C(=O)OCc2c1cc1n(c2=O)Cc2cc3c(CN(C)C)c(O)ccc3nc2-1` [Topotecan] yielded an IC50 on MATE1 [2] of 19.7 µM.

In the case of `COc1cc2c3cc1Oc1cc(ccc1O)C[C@@H]1c4c(cc(OC)c(O)c4Oc4ccc(cc4)C[C@@H]3N(C)CC2)CC[N+]1(C)C` [Tubocurarine], the “Cmax,unbound /IC50 (MATE1, text)” value at MATE1 [3] is given as 0.07. The same molecule came in with an IC50 on MATE1 [2] of 1.1 µM.
